Experimental data published in patent publication US8466177B2 (priority 2007, dated 2013).
Like-named read-outs stand apart in the source and are kept apart here.

Tests used:
[1] = system: A/Aichi/68 (H3N2); test: microbe, parasite or virus in culture; format: cell-based; details: Influenza A virus, H3N2, MDCK
[2] = system: recombinant influenza virus hemagglutinin (A/Wyoming/3/03); format: biochemical; details: 5 μM
[3] = system: B/Lee/40 (type B); test: microbe, parasite or virus in culture; format: cell-based; details: Influenza B virus, MDCK
[4] = system: A/PR/8/34 (H1N1); test: microbe, parasite or virus in culture; format: cell-based; details: Influenza A virus, MDCK
[5] = system: A/Udorn/72, H3N2; format: cell-based, influenza virus; details: 50 nM
[6] = system: A/Udorn/72 (H3N2); test: microbe, parasite or virus in culture; format: cell-based, influenza virus
[7] = system: influenza virus (A/Udorn/72, H3N2); format: cell-based; details: 10 μM

Compound | EC50 [1] | effect on HA stability (trypsin digestion) [2] | EC50 [3] | EC50 [4] | virus yield, cell cultures treated after inoculation [5] | EC50 [6] | EC50 ([6]; Influenza A virus, H3N2, MDCK) | effect on membrane fusion [7]
O=C1/C(=C/c2ccc(-c3ccc(F)cc3)o2)SC(=S)N1C1CCCCC1 [A1, (Z)-3-Cyclohexyl-5-{[5-(4-fluorophenyl)furan-2-yl]-methylene}-2-thioxothiazolidin-4-one] | 1000 pM | destabilization effects | 1000 pM | 600 pM | decreased virus yield | 400 pM | ≤ 400 pM | inhibitory effects
Cc1ccc(-c2ccc(/C=C3\SC(=S)N(C4CCCCCCC4)C3=O)o2)cc1 [A17, (Z)-3-cyclooctyl-5-{[(4-methylphenyl)furan-2-yl]methylene}-2-thioxothiazolidin-4-one] | – | – | – | – | decreased virus yield | – | – | –
